The numbers were not newly measured in patent publication US20140234397A1 (priority 2013, published 2014), which cites them from elsewhere.

Where two headings read alike, the source gives them in different places.

For data set [1] the following is noted: rat; for removal of toxin: radio-tagged metal (CO60) removed from the liver.
For data set [2] the following is noted: humans.

Consider `N[C@@H](CCC(=O)N[C@@H](CS)C(=O)NCC(=O)O)C(=O)O` [Plain glutathione, glutathione], for which the toxin remaining in data set [1] (radio-tagged metal (CO60) in the liver) is given as 100%. The removal of toxin is 0% in data set [1] and 64% in data set [1] (listed as Intravenous glutathione). Moreover, the “absorption after oral ingestion” value in data set [2] was “not absorbed”.
